Assay results from patent US10478497B2, “Combinations of inecalcitol with an anti-CD38 agent and their uses for treating cancer” (HYBRIGENICS SA., priority 2016, dated 2019).

Key:
Type in all cases: cell-based, human
[1] = tested on: L-363 multiple myeloma cell line; assay: CD38 expression by flow cytometry on L-363 cells
Text: (§1) HL-60 acute promyelocytic leukemia cell line was purchased from ECACC (cat. 98070106), U-937 hystiocytic lymphoma cell line and MM.1S multiple myeloma cell line were purchased from ATCC (cat. CRL-2974 and cat CRL-1593,2, respectively), L-363 multiple myeloma cell line, L-428 classical Hodgkin lymphoma cell line and RS4,11 B-acute lymphoblastic leukemia cell lines were purchased from DSMZ (plasma cell leukemia, cat. ACC 49, cat. ACC 197 and cat. ACC 508, respectively). All cells were maintained in RPMI Medium 1640—GlutaMAX™ (Gibco 61870) except the RS4,11 cells in alpha-MEM Medium (Gibco 12571-063), supplemented with 10% heat inactivated charcoal stripped fetal bovine serum. All culture media were supplemented with 100 units/ml penicillin and 0.1 mg/ml streptomycin, and cell lines were cultured at 37° C. in a humidified atmosphere containing 5% CO2.
(§2) Cells were treated for 72 h with various concentrations of inecalcitol (Hybrigenics, Paris, France) before labelling with fluorescent anti-human CD38 FITC (eBioscience, Vienna, Austria, cat. 11-0389-41) or the matched isotype control: mouse IgG1 K FITC (eBioscience, Vienna Austria, cat. 11-4714-41) for 1 h at 4° C. in native buffer (PBS, 2% BSA, 0.1% sodium azide). After cell wash, fluorescence was measured on an ACEA NovoCyte Flow Cytometer.

[2] = tested on: RS4,11 B-acute lymphoblastic leukemia cell line; assay: CD38 expression by flow cytometry on RS4,11 cells
Text: as §1, §2

[3] = tested on: MM.1S multiple myeloma cell line; assay: CD38 expression by flow cytometry on MM.1S cells
Text: as §1, §2

[4] = tested on: HL-60 acute promyelocytic leukemia cell line; assay: CD38 expression by flow cytometry on HL-60 cells
Text: as §1, §2

[5] = tested on: L-428 classical Hodgkin lymphoma cell line; assay: CD38 expression by flow cytometry on L-428 cells
Text: as §1, §2

[6] = tested on: U-937 hystiocytic lymphoma cell line; assay: CD38 expression by flow cytometry on U-937 cells
Text: as §1, §2

EC50 ([1]; L-363 cells, 72 h treatment, anti-human CD38 FITC flow cytometry, read-out: concentration which triggered 50% of the maximum CD38 induction (EC50)): 4 nM | EC50 ([2]; RS4,11 cells, 72 h treatment, anti-human CD38 FITC flow cytometry, read-out: concentration which triggered 50% of the maximum CD38 induction (EC50)): 0.55 nM | EC50 ([3]; MM1.S, MM.1s cells, 72 h treatment, anti-human CD38 FITC flow cytometry, read-out: concentration which triggered 50% of the maximum CD38 induction (EC50)): 0.49 nM | EC50 ([4]; HL-60 cells, 72 h treatment, anti-human CD38 FITC flow cytometry, read-out: concentration which triggered 50% of the maximum CD38 induction (EC50)): 0.43 nM | EC50 ([5]; L-428 cells, 72 h treatment, anti-human CD38 FITC flow cytometry, read-out: concentration which triggered 50% of the maximum CD38 induction (EC50)): 0.23 nM | EC50 ([6]; U-937 cells, 72 h treatment, anti-human CD38 FITC flow cytometry, read-out: concentration which triggered 50% of the maximum CD38 induction (EC50)): 0.57 nM
SMILES: C[C@H](CC#CC(C)(C)O)[C@H]1CC[C@@H]2/C(=C/C=C3C[C@@H](O)C[C@H](O)C3)CCC[C@@]21C [inecalcitol, 14epi-, 19nor-, 23yne-, 1,25dihydroxy-cholecalciferol]
effect on CD38 expression (fold increase of CD38 mean fluorescent signal), in words ([1]; FIG. 2, L-363 cell line, dose dependent): enhances CD38 expression | maximal increase in fluorescent labelling (CD38) ([1]; L-363 cells, 72 h treatment): 5 fold | effect on CD38 expression (fold increase of CD38 mean fluorescent signal), in words ([2]; FIG. 6, RS4.11 cell line, dose dependent): enhances CD38 expression | increase in fluorescent labelling (CD38) ([2]; RS4,11 cells, 72 h treatment): 2.5 fold | effect on CD38 expression (fold increase of CD38 mean fluorescent signal), in words ([3]; FIG. 1, MM.1S cell line, dose dependent): enhances CD38 expression | maximal increase in fluorescent labelling (CD38) ([3]; MM.1s cells, 72 h treatment): 5 fold | effect on CD38 expression (fold increase of CD38 mean fluorescent signal), in words ([4]; FIG. 4, HL-60 cell line, dose dependent): enhances CD38 expression | effect on CD38 expression (fold increase of CD38 mean fluorescent signal), in words ([5]; FIG. 5, classical Hodgkin lymphoma cell line, dose dependent): enhances CD38 expression | increase in fluorescent labelling (CD38) ([5]; L-428 cells, 72 h treatment): 2 fold | effect on CD38 expression (fold increase of CD38 mean fluorescent signal), in words ([6]; FIG. 3, U-937 cell line, dose dependent): enhances CD38 expression | maximal increase in fluorescent labelling (CD38) ([6]; U-937 cells, 72 h treatment): 5 fold
